PubChem BioAssay AID1259408 (Genetic Toxicology Data Bank (GENE-TOX), 2018)
The source made the active and inactive calls. No rule for the calls is given here.

System: GENE-TOX genotoxicity assays, various organisms and cells
Experiment: GENE-TOX mutagenicity studies
Conditions: for call: Assay Type: In vivo carcinogenicity studies
[1] = Species/Cell Type: Bacillus subtilis (H17 vs M45), Assay Type: Rec-assay, spot test, DNA effects (bacterial DNA repair), Assay Code: REW+, Evaluation Type: Evaluation A (Pre-1980)
[2] = Species/Cell Type: Human, Assay Type: Sister-chromatid exchange (SCE) in vitro, Assay Code: SC1+D, Dose Response: With dose response, Evaluation Type: Evaluation B (Post-1980)
[3] = Species/Cell Type: Mammalian germ cells, Sex: Male, Assay Type: Chromosome aberrations in vivo, Assay Code: CY9T, Evaluation Type: Evaluation A (Pre-1980)
[4] = Species/Cell Type: Mouse, Sex: Male, Assay Type: Sperm morphology, Assay Code: SPI-, Evaluation Type: Evaluation A (Pre-1980)
[5] = Species/Cell Type: Nonhuman, Assay Type: Sister-chromatid exchange (SCE) in vitro, Assay Code: SC2+D, Dose Response: With dose response, Evaluation Type: Evaluation B (Post-1980)
[6] = Species/Cell Type: Nonhuman, Assay Type: Sister-chromatid exchange (SCE) in vivo, Assay Code: SC3+, Evaluation Type: Evaluation B (Post-1980)
[7] = Species/Cell Type: Saccharomyces cerevisiae, Assay Type: Mitotic recombination or gene conversion, Assay Code: YEC+, Evaluation Type: Evaluation A (Pre-1980)
[8] = Species/Cell Type: Salmonella typhimurium (one or more of the five standard strains: TA98, TA100, TA1535, TA1537, and TA1538), Assay Type: Histidine reverse gene mutation, Ames assay, Assay Code: SAL+, Evaluation Type: Evaluation A (Pre-1980)
[9] = Species/Cell Type: Salmonella typhimurium, Assay Type: Forward and reverse gene mutation, host-mediated assay, Assay Code: HMA+, Evaluation Type: Evaluation A (Pre-1980)
[10] = Species/Cell Type: Syrian hamster embryo (SA7/SHE) cells, Assay Type: Cell transformation, viral enhanced, Assay Code: CT7+, Evaluation Type: Evaluation A (Pre-1980)
[11] = Species/Cell Type: Salmonella typhimurium (one or more of the five standard strains: TA98, TA100, TA1535, TA1537, and TA1538), Assay Type: Histidine reverse gene mutation, Ames assay, Assay Code: SALT, Evaluation Type: Evaluation A (Pre-1980)
[12] = Species/Cell Type: Salmonella typhimurium (one or more of the five standard strains: TA98, TA100, TA1535, TA1537, and TA1538), Assay Type: Histidine reverse gene mutation, Ames assay, Assay Code: SAL-, Evaluation Type: Evaluation A (Pre-1980)

## COc1cc2c(c3oc(=O)c4c(c13)CCC4=O)[C@@H]1C=CO[C@@H]1O2
[1]
  mutagenic call: active; positive
Species/Cell Type: Chinese hamster lung (V79) cells, Assay Type: Forward gene mutation at the HPRT or ouabain locus, Assay Code: V79+, Evaluation Type: Evaluation A (Pre-1980)
  mutagenic call: active; positive
Species/Cell Type: Drosophila melanogaster, Assay Type: Sex-linked recessive lethal gene mutation, Assay Code: SRL+, Evaluation Type: Evaluation A (Pre-1980)
  mutagenic call: active; positive
Species/Cell Type: Escherichia coli polA (W3119 vs P3478), Assay Type: Rec-assay, DNA effects (bacterial DNA repair), Assay Code: RE1+, Evaluation Type: Evaluation A (Pre-1980)
  mutagenic call: active; positive
Species/Cell Type: Human diploid fibroblasts, Assay Type: Unscheduled DNA synthesis (UDS) in vitro, DNA effects, Assay Code: UDH+D*, Activation: With metabolic activation, Dose Response: With dose response, Evaluation Type: Evaluation A (Pre-1980)
  mutagenic call: active; positive
Species/Cell Type: Human lymphocytes, Assay Type: Sister-chromatid exchange (SCE) in vitro, Assay Code: SCL+D, Dose Response: With dose response, Evaluation Type: Evaluation A (Pre-1980)
  mutagenic call: active; positive
Species/Cell Type: Human lymphocytes, Assay Type: Sister-chromatid exchange (SCE) in vitro, Assay Code: SCL+D, Dose Response: With dose response, Evaluation Type: Evaluation B (Post-1980)
  mutagenic call: active; positive
Species/Cell Type: Human, Assay Type: Sister-chromatid exchange (SCE) in vitro, Assay Code: SC1+D, Dose Response: With dose response, Evaluation Type: Evaluation A (Pre-1980)
  mutagenic call: active; positive
[2]
  mutagenic call: active; positive
[3]
  mutagenic call: no conclusion
Species/Cell Type: Mammalian polychromatic erythrocytes, Assay Type: Micronucleus test, chromosome aberrations, Assay Code: MNT+, Evaluation Type: Evaluation A (Pre-1980)
  mutagenic call: active; positive
[4]
  mutagenic call: inactive; negative
Species/Cell Type: Neurospora crassa, Assay Type: Forward gene mutation, Assay Code: NEF+, Evaluation Type: Evaluation A (Pre-1980)
  mutagenic call: active; positive
Species/Cell Type: Nonhuman, Assay Type: Chromosome aberrations in vitro, Assay Code: CY&+, Evaluation Type: Evaluation A (Pre-1980)
  mutagenic call: active; positive
Species/Cell Type: Nonhuman, Assay Code: CCG+, Evaluation Type: Evaluation A (Pre-1980)
  call: active; positive
Species/Cell Type: Nonhuman, Assay Type: Sister-chromatid exchange (SCE) in vitro, Assay Code: SC2+D, Dose Response: With dose response, Evaluation Type: Evaluation A (Pre-1980)
  mutagenic call: active; positive
[5]
  mutagenic call: active; positive
Species/Cell Type: Nonhuman, Assay Type: Sister-chromatid exchange (SCE) in vivo, Assay Code: SC3+, Evaluation Type: Evaluation A (Pre-1980)
  mutagenic call: active; positive
[6]
  mutagenic call: active; positive
Species/Cell Type: Rat primary hepatocytes, Assay Type: Unscheduled DNA synthesis (UDS) in vitro, DNA effects, Assay Code: UDP+, Evaluation Type: Evaluation A (Pre-1980)
  mutagenic call: active; positive
Species/Cell Type: Rat, Sex: Male, Assay Type: Sperm morphology, Assay Code: SPA-, Evaluation Type: Evaluation A (Pre-1980)
  mutagenic call: inactive; negative
[7]
  mutagenic call: active; positive
Species/Cell Type: Saccharomyces cerevisiae, Assay Type: Mitotic recombination or gene conversion, Assay Code: YEH+, Evaluation Type: Evaluation A (Pre-1980)
  mutagenic call: active; positive
[8]
  mutagenic call: active; positive
Species/Cell Type: Salmonella typhimurium, Assay Type: Forward and reverse gene mutation, body fluid assay, Assay Code: BFU+, Evaluation Type: Evaluation A (Pre-1980)
  mutagenic call: active; positive
[9]
  mutagenic call: active; positive
[10]
  mutagenic call: active; positive
Species/Cell Type: Syrian hamster embryo (SHE) cells, Assay Type: Cell transformation, clonal assay, Assay Code: CTC+D, Dose Response: With dose response, Evaluation Type: Evaluation A (Pre-1980)
  mutagenic call: active; positive
Species/Cell Type: Syrian hamster embryo (SHE) cells, Assay Type: Cell transformation, focus assay, Assay Code: CTF+, Evaluation Type: Evaluation A (Pre-1980)
  mutagenic call: active; positive

## CN(CC(C)(C)C)N=O
[11]
  mutagenic call: no conclusion

## CN(C)Nc1nc(-c2ccc([N+](=O)[O-])o2)cs1
Species/Cell Type: Escherichia coli WP2, Assay Type: Tryptophan reverse gene mutation, Assay Code: WP2+, Evaluation Type: Evaluation A (Pre-1980)
  mutagenic call: active; positive
Species/Cell Type: Escherichia coli WP2 UVRA, Assay Type: Tryptophan reverse gene mutation, Assay Code: WPU-, Evaluation Type: Evaluation A (Pre-1980)
  mutagenic call: inactive; negative
[8]
  mutagenic call: active; positive

## CNC(C)C1CCC(N)C(OC2C(N)CC(N)C(OC3OCC(C)(O)C(NC)C3O)C2O)O1 (centres undefined)
Species/Cell Type: Saccharomyces cerevisiae, Assay Type: Mitotic recombination or gene conversion, Assay Code: YEH-, Evaluation Type: Evaluation A (Pre-1980)
  mutagenic call: inactive; negative

## O=c1cc[nH]c2ccccc12
[12]
  mutagenic call: inactive; negative

## C[C@H]1c2cccc(O)c2C(O)=C2C(=O)[C@]3(O)C(O)=C(C(N)=O)C(=O)[C@@H](N(C)C)[C@@H]3[C@@H](O)[C@@H]21
Species/Cell Type: Human, Sex: Male, Assay Type: Sperm morphology, Assay Code: SPHT, Evaluation Type: Evaluation A (Pre-1980)
  mutagenic call: no conclusion

## CC1(C)O[C@@H]2C[C@H]3[C@@H]4C[C@H](F)C5=CC(=O)C=C[C@]5(C)[C@@]4(F)[C@@H](O)C[C@]3(C)[C@]2(C(=O)CO)O1
[10]
  mutagenic call: active; positive

## CC(=O)O[C@]1(C(C)=O)CC[C@H]2[C@@H]3C[C@H](C)C4=CC(=O)CC[C@]4(C)[C@H]3CC[C@@]21C
[2]
  mutagenic call: active; positive
Species/Cell Type: Human, Sex: Male, Assay Type: Sperm morphology, Assay Code: SPH+, Evaluation Type: Evaluation A (Pre-1980)
  mutagenic call: active; positive
[6]
  mutagenic call: active; positive

## CC1(C)S[C@@H]2[C@H](NC(=O)[C@H](N)c3ccccc3)C(=O)N2[C@H]1C(=O)O
Species/Cell Type: Escherichia coli polA (W3119 vs P3478), Assay Type: Rec-assay, DNA effects (bacterial DNA repair), Assay Code: RE1-, Evaluation Type: Evaluation A (Pre-1980)
  mutagenic call: inactive; negative

## COc1cc2c(c3oc(=O)c4c(c13)CCC4=O)[C@@H]1C(Cl)C(O)O[C@@H]1O2 (some centres undefined)
[11]
  mutagenic call: no conclusion

## CCc1cccc(C)c1N(C(=O)CCl)C(C)COC (centres undefined)
Species/Cell Type: Zea mays (corn), Assay Type: Gene mutation, Assay Code: ZEM-, Evaluation Type: Evaluation A (Pre-1980)
  mutagenic call: inactive; negative

## NNC(=O)c1ccncc1
Species/Cell Type: Human, Assay Type: Sister-chromatid exchange (SCE) in vitro, Assay Code: SC1+, Evaluation Type: Evaluation B (Post-1980)
  mutagenic call: active; positive
[3]
  mutagenic call: no conclusion
Species/Cell Type: Mammalian oocytes or early embryo, Assay Type: Chromosome aberrations in vivo, Assay Code: CYO-, Evaluation Type: Evaluation A (Pre-1980)
  mutagenic call: inactive; negative
Species/Cell Type: Mouse, Sex: Female, Assay Type: Spot test, gene mutation, Assay Code: MSTT, Evaluation Type: Evaluation A (Pre-1980)
  mutagenic call: no conclusion
[4]
  mutagenic call: inactive; negative
Species/Cell Type: Nonhuman, Assay Code: CCG+L, Evaluation Type: Evaluation A (Pre-1980)
  call: active; positive
[5]
  mutagenic call: active; positive
Species/Cell Type: Nonhuman, Assay Type: Sister-chromatid exchange (SCE) in vivo, Assay Code: SC3T, Evaluation Type: Evaluation B (Post-1980)
  mutagenic call: no conclusion
Species/Cell Type: Rabbit, Sex: Male, Assay Type: Sperm morphology, Assay Code: SPR-, Evaluation Type: Evaluation A (Pre-1980)
  mutagenic call: inactive; negative
Species/Cell Type: Rodents, Sex: Male, Assay Type: Dominant lethal test, Assay Code: DLT-, Evaluation Type: Evaluation A (Pre-1980)
  mutagenic call: inactive; negative
Species/Cell Type: Salmonella typhimurium, Assay Type: Forward and reverse gene mutation, body fluid assay, Assay Code: BFUT, Evaluation Type: Evaluation A (Pre-1980)
  mutagenic call: no conclusion
[9]
  mutagenic call: active; positive

## O=S(=O)(O)c1ccc(N=Nc2cc(S(=O)(=O)O)c3ccccc3c2O)c2ccccc12
Species/Cell Type: Bacillus subtilis (H17 vs M45), Assay Type: Rec-assay, spot test, DNA effects (bacterial DNA repair), Assay Code: REWT, Evaluation Type: Evaluation A (Pre-1980)
  mutagenic call: no conclusion
Species/Cell Type: Nonhuman, Assay Code: CCG-, Evaluation Type: Evaluation A (Pre-1980)
  call: inactive; negative
Species/Cell Type: Saccharomyces cerevisiae, Assay Type: Mitotic recombination or gene conversion, Assay Code: YEC-, Evaluation Type: Evaluation A (Pre-1980)
  mutagenic call: inactive; negative
[12]
  mutagenic call: inactive; negative

## c1ccc2nc3ccccc3cc2c1
Species/Cell Type: Saccharomyces cerevisiae, Assay Type: Forward gene mutation, Assay Code: YEFT, Evaluation Type: Evaluation A (Pre-1980)
  mutagenic call: no conclusion

## CN1CCN(CC(=O)N2c3ccccc3C(=O)Nc3cccnc32)CC1
Species/Cell Type: Mammalian polychromatic erythrocytes, Assay Type: Micronucleus test, chromosome aberrations, Assay Code: MNTT, Evaluation Type: Evaluation B (Post-1980)
  mutagenic call: no conclusion

## [Cl][Rh]([Cl])[Cl]
[1]
  mutagenic call: active; positive

## CN=[N+]([O-])Cc1ccc(C(=O)NC(C)C)cc1
Species/Cell Type: Nonhuman, Assay Type: Sister-chromatid exchange (SCE) in vitro, Assay Code: SC2+, Evaluation Type: Evaluation B (Post-1980)
  mutagenic call: active; positive

## Cc1cc(Cl)ccc1OC(C)C(=O)O (centres undefined)
[7]
  mutagenic call: active; positive
